Source: PubChem BioAssay (NCI)
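Protocol summary: plate cells (96-well), add compound at 5 concentrations, incubate 48 h, interpolate endpoints linearly. GI50 marks 50% less growth. The concentration for full growth arrest is given as TGI.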

Tests used:
Test in all cases: growth of human tumour cells (NCI), 48 h
786-0 renal = system: 786-0 renal
A498 renal = system: A498 renal
A549 NSCLC = system: A549 NSCLC
ACHN renal = system: ACHN renal
BT-549 breast = system: BT-549 breast
CCRF-CEM leukemia = system: CCRF-CEM leukemia
COLO 205 colon = system: COLO 205 colon
DU-145 prostate = system: DU-145 prostate
EKVX NSCLC = system: EKVX NSCLC
HCC-2998 colon = system: HCC-2998 colon
HCT-116 colon = system: HCT-116 colon
HCT-15 colon = system: HCT-15 colon
HL-60(TB) leukemia = system: HL-60(TB) leukemia
HOP-62 NSCLC = system: HOP-62 NSCLC
HOP-92 NSCLC = system: HOP-92 NSCLC
HS 578T breast = system: HS 578T breast
HT29 colon = system: HT29 colon
IGROV1 ovarian = system: IGROV1 ovarian
K-562 leukemia = system: K-562 leukemia
KM12 colon = system: KM12 colon
LOX IMVI melanoma = system: LOX IMVI melanoma
M14 melanoma = system: M14 melanoma
MALME-3M melanoma = system: MALME-3M melanoma
MCF7 breast = system: MCF7 breast
MDA-MB-231 breast = system: MDA-MB-231 breast
MDA-MB-435 = system: MDA-MB-435
MOLT-4 leukemia = system: MOLT-4 leukemia
NCI-H226 lung = system: NCI-H226 lung
NCI-H23 lung = system: NCI-H23 lung
NCI-H460 lung = system: NCI-H460 lung
NCI-H522 lung = system: NCI-H522 lung
NCI/ADR-RES ovarian = system: NCI/ADR-RES ovarian
OVCAR-3 ovarian = system: OVCAR-3 ovarian
OVCAR-4 ovarian = system: OVCAR-4 ovarian
OVCAR-5 ovarian = system: OVCAR-5 ovarian
OVCAR-8 ovarian = system: OVCAR-8 ovarian
PC-3 prostate = system: PC-3 prostate
RPMI-8226 leukemia = system: RPMI-8226 leukemia
RXF 393 renal = system: RXF 393 renal
SF-268 CNS = system: SF-268 CNS
SF-295 CNS = system: SF-295 CNS
SF-539 CNS = system: SF-539 CNS
SK-MEL-2 melanoma = system: SK-MEL-2 melanoma
SK-MEL-28 melanoma = system: SK-MEL-28 melanoma
SK-MEL-5 melanoma = system: SK-MEL-5 melanoma
SK-OV-3 ovarian = system: SK-OV-3 ovarian
SN12C renal = system: SN12C renal
SNB-19 CNS = system: SNB-19 CNS
SNB-75 CNS = system: SNB-75 CNS
SR leukemia = system: SR leukemia
SW-620 colon = system: SW-620 colon
T-47D breast = system: T-47D breast
TK-10 renal = system: TK-10 renal
U251 CNS = system: U251 CNS
UACC-257 melanoma = system: UACC-257 melanoma
UACC-62 melanoma = system: UACC-62 melanoma
UO-31 renal = system: UO-31 renal

CC1(C)OC2C(CO[Si](C)(C)C(C)(C)C)OC(n3c(I)c(C#C[Si](C)(C)C)c(=O)[nH]c3=O)C2O1 (centres undefined)
GI50 (786-0 renal): 13.1 µM | TGI (786-0 renal): 26.8 µM | GI50 (A498 renal): 32.2 µM | TGI (A498 renal): > 100 µM | GI50 (A549 NSCLC): > 100 µM | TGI (A549 NSCLC): > 100 µM | GI50 (ACHN renal): 12.9 µM | TGI (ACHN renal): 26.4 µM | GI50 (BT-549 breast): 13.2 µM | TGI (BT-549 breast): 32.1 µM | GI50 (CCRF-CEM leukemia): 2.67 µM | TGI (CCRF-CEM leukemia): 11 µM | GI50 (COLO 205 colon): 1.59 µM | TGI (COLO 205 colon): 2.94 µM | GI50 (DU-145 prostate): 13 µM | TGI (DU-145 prostate): 25.6 µM | GI50 (EKVX NSCLC): 59.6 µM | TGI (EKVX NSCLC): > 100 µM | GI50 (HCC-2998 colon): 4.52 µM | TGI (HCC-2998 colon): 17.7 µM | GI50 (HCT-116 colon): 1.66 µM | TGI (HCT-116 colon): 3.37 µM | GI50 (HCT-15 colon): 2.39 µM | TGI (HCT-15 colon): 15.4 µM | GI50 (HL-60(TB) leukemia): 2.35 µM | TGI (HL-60(TB) leukemia): 15.2 µM | GI50 (HOP-62 NSCLC): > 100 µM | TGI (HOP-62 NSCLC): > 100 µM | GI50 (HOP-92 NSCLC): 0.0445 µM | TGI (HOP-92 NSCLC): 14.1 µM | GI50 (HS 578T breast): 16.8 µM | TGI (HS 578T breast): 51.1 µM | GI50 (HT29 colon): 5.01 µM | TGI (HT29 colon): 23.7 µM | GI50 (IGROV1 ovarian): 7.87 µM | TGI (IGROV1 ovarian): 21.5 µM | GI50 (K-562 leukemia): 1.61 µM | TGI (K-562 leukemia): 3.89 µM | GI50 (KM12 colon): 23.2 µM | TGI (KM12 colon): 92.7 µM | GI50 (LOX IMVI melanoma): 3.01 µM | TGI (LOX IMVI melanoma): 11.1 µM | GI50 (M14 melanoma): 13.4 µM | TGI (M14 melanoma): 28.1 µM | GI50 (MALME-3M melanoma): 4.62 µM | TGI (MALME-3M melanoma): 18.6 µM | GI50 (MCF7 breast): 11.2 µM | TGI (MCF7 breast): 24.3 µM | GI50 (MDA-MB-231 breast): 4.22 µM | TGI (MDA-MB-231 breast): 17 µM | GI50 (MDA-MB-435): 15.7 µM | TGI (MDA-MB-435): 44.3 µM | GI50 (MOLT-4 leukemia): 1.47 µM | TGI (MOLT-4 leukemia): 3.54 µM | GI50 (NCI-H226 lung): 17 µM | TGI (NCI-H226 lung): 34 µM | GI50 (NCI-H23 lung): 18.2 µM | TGI (NCI-H23 lung): 50.9 µM | GI50 (NCI-H460 lung): 16.8 µM | TGI (NCI-H460 lung): 34.2 µM | GI50 (NCI-H522 lung): 1.38 µM | TGI (NCI-H522 lung): 2.74 µM | GI50 (NCI/ADR-RES ovarian): 20.4 µM | TGI (NCI/ADR-RES ovarian): 58.3 µM | GI50 (OVCAR-3 ovarian): 1.81 µM | TGI (OVCAR-3 ovarian): 3.54 µM | GI50 (OVCAR-4 ovarian): 16.1 µM | TGI (OVCAR-4 ovarian): 31.8 µM | GI50 (OVCAR-5 ovarian): 18.7 µM | TGI (OVCAR-5 ovarian): 42.8 µM | GI50 (OVCAR-8 ovarian): 12.5 µM | TGI (OVCAR-8 ovarian): 45.8 µM | GI50 (PC-3 prostate): 2.04 µM | TGI (PC-3 prostate): 4.13 µM | GI50 (RPMI-8226 leukemia): 2.4 µM | TGI (RPMI-8226 leukemia): 8.6 µM | GI50 (RXF 393 renal): 2.51 µM | TGI (RXF 393 renal): 9.1 µM | GI50 (SF-268 CNS): 11.4 µM | TGI (SF-268 CNS): 28.2 µM | GI50 (SF-295 CNS): > 100 µM | TGI (SF-295 CNS): > 100 µM | GI50 (SF-539 CNS): 15.4 µM | TGI (SF-539 CNS): 28.9 µM | GI50 (SK-MEL-2 melanoma): 3.78 µM | TGI (SK-MEL-2 melanoma): 16.7 µM | GI50 (SK-MEL-28 melanoma): 1.83 µM | TGI (SK-MEL-28 melanoma): 3.56 µM | GI50 (SK-MEL-5 melanoma): 13.4 µM | TGI (SK-MEL-5 melanoma): 26.2 µM | GI50 (SK-OV-3 ovarian): > 100 µM | TGI (SK-OV-3 ovarian): > 100 µM | GI50 (SN12C renal): 15.1 µM | TGI (SN12C renal): 37.5 µM | GI50 (SNB-19 CNS): > 100 µM | TGI (SNB-19 CNS): > 100 µM | GI50 (SNB-75 CNS): 36.7 µM | TGI (SNB-75 CNS): > 100 µM | GI50 (SR leukemia): 1.42 µM | TGI (SR leukemia): 4.3 µM | GI50 (SW-620 colon): 1.69 µM | TGI (SW-620 colon): 3.21 µM | GI50 (T-47D breast): 10.5 µM | TGI (T-47D breast): 26.4 µM | GI50 (TK-10 renal): 6.44 µM | TGI (TK-10 renal): 20 µM | GI50 (U251 CNS): 19.4 µM | TGI (U251 CNS): 65.7 µM | GI50 (UACC-257 melanoma): 13.3 µM | TGI (UACC-257 melanoma): 30.1 µM | GI50 (UACC-62 melanoma): 21.5 µM | TGI (UACC-62 melanoma): 50.5 µM | GI50 (UO-31 renal): 2.63 µM | TGI (UO-31 renal): 10.4 µM
